# Laboratory results: patent US9610463B2, “Cosmetic or dermatological preparation comprising collagen, chitosan, glycosylaminoglycan and cell growth promoting peptide and/or cellular complex” (BEIERSDORF AG, priority 2009, dated 2017)
# “And” between values parts separate entries of the source, which are not always exact repeats. Identical values can stand only once.
# Legend:
# Type in all cases: cell-based
# [1] = test system: MSC (mesenchymal stem cells); assay: Cell growth assay, mesenchymal stem cells
# Description: (§1) The effect of the addition of MPC vs. (MPC+IDP4), GPVE vs. (GPVE+IDP4), and GPVE/MPC vs. (GPVE/MPC=IDP4) on the growth of the following cells was investigated: • 1. HacaT keratinocyte cell line • 2. NIH3T3 fibroblast cell line • 3. MSC (mesenchymal stem cells).
# (§2) Method: • (1) Cell seeding • (2) Starvation for 24 h with serum-free DMEM media • (3) Sample treatment • (4) Cultivation for 72 h • (5) Cell harvesting • (6) Cell growth assay
# [2] = test system: HacaT keratinocyte cell line; assay: ECM expression (ELISA): hyaluronic acid expression by keratinocyte cells; settings: control = 100
# Description: Method: • (1) Cell seeding • (2) Starvation for 24 h with serum-free DMEM media • (3) Sample treatment • (4) Cultivation for 72 h • (5) Cell supernatant collection • (6) Assay […]
# [3] = test system: NIH3T3 fibroblast cell line; assay: Cell growth assay, NIH3T3 fibroblast cell line
# Description: as §1, §2
# [4] = test system: NIH3T3 fibroblast cell line; assay: ECM expression (ELISA): procollagen expression by fibroblast cells; settings: control = 100
# Description: (§3) The effect of the addition of MPC and MPC+IDP4 on the extracellular matrix expression of procollagen, fibronectin, elastin, hyaluronic acid and laminine by the following cells was investigated: • 1. HacaT keratinocyte cell line (hyaluronic acid, laminine) • 2. NIH3T3 fibroblast cell line (procollagen, fibronectin, elastin).
# (§4) Method: • (1) Cell seeding • (2) Starvation for 24 h with serum-free DMEM media • (3) Sample treatment • (4) Cultivation for 72 h • (5) Cell supernatant collection • (6) Assay
# (§5) Assay (ELISA): • (a) Coating with capture antibody • (b) Blocking (blocking solution) • (c) Aspiration and washing each well five times • (d) Addition of sample and standard to each well • (e) Aspiration and washing each well five times • (f) Addition of conjugate to each well • (g) Aspiration and washing each well five times • (h) Addition of substrate solution to each well • (i) Addition of stop solution to each well • (j) Reading of optical density at 450 nm
# as §3, with “GPVE” for “MPC”, “GPVE+IDP4” for “MPC+IDP4”
# as §3, with “GPVE/MPC” for “the addition of MPC”, “GPVE/MPC+IDP4” for “MPC+IDP4”
# [5] = test system: NIH3T3 fibroblast cell line; assay: ECM expression (ELISA): elastin expression by fibroblast cells; settings: control = 100
# Description: as §3, §4, §5
# as §3, with “GPVE” for “MPC”, “GPVE+IDP4” for “MPC+IDP4”
# as §3, with “GPVE/MPC” for “the addition of MPC”, “GPVE/MPC+IDP4” for “MPC+IDP4”
# mesenchymal stem cells = assay: Protective effect against H2O2 (anti-apoptosis effect); settings: W/O H2O2; With H2O2 0% MPC = 100
# Description: The protective (anti-apoptosis) effect of the addition of MPC and MPC+IDP4 on mesenchymal stem cells against H2O2 (free radical former) was tested.
# Method: • (1) Cell seeding • (2) Starvation for 24 h with serum-free DMEM media • (3) Sample treatment • (4) Cultivation for 24 h • (5) Treatment with 5 mM H2O2 • (6) Incubation for 24 h • (7) Cell growth assay
# [6] = test system: NIH3T3 fibroblast cell line; assay: ECM expression (ELISA): fibronectin expression by fibroblast cells; settings: control = 100
# Description: as §3, §4, §5
# as §3, with “GPVE” for “MPC”, “GPVE+IDP4” for “MPC+IDP4”
# as §3, with “GPVE/MPC” for “the addition of MPC”, “GPVE/MPC+IDP4” for “MPC+IDP4”
# [7] = test system: HacaT keratinocyte cell line; assay: Cell growth assay, HacaT keratinocyte cell line
# Description: as §1, §2
# [8] = test system: HacaT keratinocyte cell line; assay: ECM expression (ELISA): laminine expression by keratinocyte cells; settings: control = 100
# Description: as §3, §4, §5
# as §3, with “GPVE” for “MPC”, “GPVE+IDP4” for “MPC+IDP4”
# as §3, with “GPVE/MPC” for “the addition of MPC”, “GPVE/MPC+IDP4” for “MPC+IDP4”
# [9] = alone at the concentration employed (1 μg)
substance,measurement,setting,value
oligopeptide-21 [IDP4],"growth, MSC (%)","[1]; 10 μg/ml, control = 100",145%
same,"significance of increase in growth, mesenchymal stem cells",[1]; [9],did not afford any statistically significant increase in growth
same,hyaluronic acid %,[2]; 10 ng/ml,110%
same,hyaluronic acid %,[2]; 100 ng/ml,137.5%
same,hyaluronic acid %,[2]; 1 μg/ml,150%
same,hyaluronic acid %,[2]; 10 μg/ml,160%
same,"growth, NIH3T3 (%)","[3]; 10 μg/ml, control = 100",260%
same,"significance of increase in growth, fibroblast cell line",[3]; [9],did not afford any statistically significant increase in growth
same,procollagen %,[4]; 10 ng/ml,175%
same,procollagen %,[4]; 100 ng/ml,226%
same,procollagen %,[4]; 1 μg/ml,302%
same,procollagen %,[4]; 10 μg/ml,333%
same,elastin %,[5]; 10 ng/ml,131%
same,elastin %,[5]; 100 ng/ml,127%
same,elastin %,[5]; 1 μg/ml,137%
same,elastin %,[5]; 10 μg/ml,131% and 137%
same,"cell growth, MSC",mesenchymal stem cells,175
same,fibronectin %,[6]; 10 ng/ml,101%
same,fibronectin %,[6]; 100 ng/ml,105%
same,fibronectin %,[6]; 1 μg/ml,116%
same,fibronectin %,[6]; 10 μg/ml,158%
same,"growth, Haca T (%)","[7]; 10 μg/ml, control = 100",148%
same,"significance of increase in growth, keratinocyte cell line",[7]; [9],did not afford any statistically significant increase in growth
same,laminine %,[8]; 10 ng/ml,115%
same,laminine %,[8]; 100 ng/ml,135%
same,laminine %,[8]; 1 μg/ml,175%
same,laminine %,[8]; 10 μg/ml,177.5%
